Where a name gives a salt, the structure may show the parent alone.
Key:
Bcl-2 protein = Bcl-2 protein (histag-Bcl-2, UniProtKB P10415) (Homo sapiens (Human), UniProt P10415); test: Inhibition of Bcl-2 by the fluorescence polarisation technique; assay type: binding; settings: fluorescence polarisation test; method A, or method B where underlined (underlining not visible); read-out: IC50 (nM) Bcl-2 FP
From the text: Inhibition of Bcl-2 by the fluorescence polarisation technique

[1] = tested on: RS4;11 leukaemia tumour line; test: In vitro cytotoxicity, Microculture Tetrazolium Assay (MTT); assay type: cell-based; settings: Homo sapiens; RS4;11 cells, 48 hours exposure
Method: The cytotoxicity studies were carried out on the RS4;11 leukaemia tumour line.
The cells are distributed onto microplates and exposed to the test compounds for 48 hours. The cell viability is then quantified by a colorimetric assay, the Microculture Tetrazolium Assay (Cancer Res., 1987, 47, 939-942).

Sequence of Bcl-2 protein (P10415 whole entry): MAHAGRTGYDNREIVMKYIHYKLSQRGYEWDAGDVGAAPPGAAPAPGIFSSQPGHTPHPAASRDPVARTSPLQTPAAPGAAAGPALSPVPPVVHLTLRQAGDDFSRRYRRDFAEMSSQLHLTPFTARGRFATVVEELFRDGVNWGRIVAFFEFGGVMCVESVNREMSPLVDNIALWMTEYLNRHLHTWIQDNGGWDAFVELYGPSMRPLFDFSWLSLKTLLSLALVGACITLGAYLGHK

SMILES | IC50 (Bcl-2 protein) [nM] | IC50 [1] [nM]
Cc1cc(C(=O)N(c2ccccc2)c2ccc(O)cc2)cn1-c1cc(Br)ccc1C(=O)N1Cc2ccccc2C[C@H]1CN1CCN(C)CC1 [Example 22, 1-(5-Bromo-2-{[(3S)-3-[(4-methylpiperazin-1-yl)methyl]-3,4-dihydroisoquinolin-2(1H)-yl]carbonyl}phenyl)-N-(4-hydroxyphenyl)-5-methyl-N-phenyl-1H-pyrrole-3-carboxamide] | 10.7 | 142
Cc1cc(C(=O)N(c2ccc(O)cc2)c2ccc(O)cc2)cn1-c1cc(Br)ccc1C(=O)N1Cc2ccccc2C[C@H]1CN1CCN(C)CC1 [Example 61, 1-(5-Bromo-2-{[(3S)-3-[(4-methylpiperazin-1-yl)methyl]-3,4-dihydroisoquinolin-2(1H)-yl]carbonyl}phenyl)-N,N-bis(4-hydroxyphenyl)-5-methyl-1H-pyrrole-3-carboxamide] | 7.7 | 204
Cc1cc(C(=O)N(c2ccccc2)c2ccc3[nH]ccc3c2)cn1-c1ccccc1C(=O)N1Cc2ccccc2C[C@H]1CN(C)C [Example 10, 1-(2-{[(3S)-3-[(Dimethylamino)methyl]-3,4-dihydroisoquinolin-2(1H)-yl]carbonyl}phenyl)-N-(1H-indol-5-yl)-5-methyl-N-phenyl-1H-pyrrole-3-carboxamide] | 146 | 2220
Cc1cc(C(=O)N(c2ccc(O)cc2)c2ccc3[nH]ccc3c2)cn1-c1cc(Br)ccc1C(=O)N1Cc2ccccc2C[C@H]1CN1CCN(C2CCCC2)CC1 [Example 80, 1-(5-Bromo-2-{[(3S)-3-[(4-cyclopentylpiperazin-1-yl)methyl]-3,4-dihydroisoquinolin-2(1H)-yl]carbonyl}phenyl)-N-(4-hydroxyphenyl)-N-(1H-indol-5-yl)-5-methyl-1H-pyrrole-3-carboxamide] | 6.8 | 120
COc1cc(-n2cc(C(=O)N(c3ccc(O)cc3)c3ccc4[nH]ccc4c3)c3ccccc32)c(C(=O)N2Cc3ccccc3C[C@H]2CN2CCN(C)CC2)cc1O [Example 202, 1-{4-Hydroxy-5-methoxy-2-[(3S)-3-[(4-methylpiperazin-1-yl)methyl]-1,2,3,4-tetrahydroisoquinoline-2-carbonyl]phenyl}-N-(4-hydroxyphenyl)-N-(1H-indol-5-yl)-1H-indole-3-carboxamide] | 4.4 | 798
NC[C@@H]1Cc2ccccc2CN1C(=O)c1cc(N)ccc1-n1nc(C(=O)N(c2ccccc2)c2ccccc2)c2ccccc21 [Example 138, 1-{4-Amino-2-[(3S)-3-(aminomethyl)-1,2,3,4-tetrahydroisoquinoline-2-carbonyl]phenyl}-N,N-diphenyl-1H-indazole-3-carboxamide] | 52.2 | 2020
Cc1ccc(N(C(=O)c2cc(C)n(-c3cc(Br)ccc3C(=O)N3Cc4ccccc4C[C@H]3CN3CCN(C)CC3)c2)c2ccc(O)cc2)cc1 [Example 53, 1-(5-Bromo-2-{[(3S)-3-[(4-methylpiperazin-1-yl)methyl]-3,4-dihydroisoquinolin-2(1H)-yl]carbonyl}phenyl)-N-(4-hydroxyphenyl)-5-methyl-N-(4-methylphenyl)-1H-pyrrole-3-carboxamide] | 9 | 207
Cc1ccc(N(C(=O)c2cn(-c3cc4c(cc3C(=O)N3Cc5ccccc5C[C@H]3CN3CCN(C)CC3)OCO4)c3ccccc23)c2ccc(O)cc2)cc1F [Example 52, N-(3-Fluoro-4-methylphenyl)-N-(4-hydroxyphenyl)-1-(6-{[(3S)-3-[(4-methylpiperazin-1-yl)methyl]-3,4-dihydroisoquinolin-2(1H)-yl]carbonyl}-1,3-benzodioxol-5-yl)-1H-indole-3-carboxamide] | 5.4 | 77.3
CN1CCN(C[C@@H]2Cc3ccccc3CN2C(=O)c2cc3c(cc2-n2cc(C(=O)N(c4ccc(O)c(Cl)c4)c4ccc5c(ccn5C)c4)c4ccccc42)OCO3)CC1 [Example 81, N-(3-Chloro-4-hydroxyphenyl)-N-(1-methyl-1H-indol-5-yl)-1-(6-{[(3S)-3-[(4-methylpiperazin-1-yl)methyl]-3,4-dihydroisoquinolin-2(1H)-yl]carbonyl}-1,3-benzodioxol-5-yl)-1H-indole-3-carboxamide hydrochloride] | 83.8 | 652
CN1CCN(C[C@@H]2Cc3ccccc3CN2C(=O)c2cc3c(cc2-n2cc(C(=O)N(c4ccc(O)cc4)c4ccc5[nH]ccc5c4)c4ccccc42)OCO3)CC1 [Example 37, N-(4-Hydroxyphenyl)-N-(1H-indol-5-yl)-1-(6-{[(3S)-3-[(4-methylpiperazin-1-yl)methyl]-3,4-dihydroisoquinolin-2(1H)-yl]carbonyl}-1,3-benzodioxol-5-yl)-1H-indole-3-carboxamide] | 3.8 | 47.1
CCCCN(C(=O)c1cn(-c2cc(OC)c(O)cc2C(=O)N2Cc3ccccc3C[C@H]2CN2CCN(C)CC2)c2ccccc12)c1ccccc1 [Example 194, N-Butyl-1-{4-hydroxy-5-methoxy-2-[(3S)-3-[(4-methylpiperazin-1-yl)-methyl]-1,2,3,4-tetrahydroisoquinoline-2-carbonyl]phenyl}-N-phenyl-1H-indole-3-carboxamide dihydrochloride] | 6.7 | 534
Cc1cc(C(=O)N(c2ccc(O)cc2)c2ccc(Cl)cc2)cn1-c1cc2c(cc1C(=O)N1Cc3ccccc3C[C@H]1CN1CCN(C)CC1)OCO2 [Example 85, N-(4-Chlorophenyl)-N-(4-hydroxyphenyl)-5-methyl-1-(6-{[(3S)-3-[(4-methylpiperazin-1-yl)methyl]-3,4-dihydroisoquinolin-2(1H)-yl]carbonyl}-1,3-benzodioxol-5-yl)-1H-pyrrole-3-carboxamide] | 3.7 | 129
COc1ccc(C(=O)N2Cc3ccccc3C[C@H]2CN(C)C)c(-n2cc(C(=O)N(c3ccccc3)c3ccc(O)cc3)c3ccccc32)c1 [Example 175, 1-{2-[(3S)-3-[(Dimethylamino)methyl]-1,2,3,4-tetrahydroisoquinoline-2-carbonyl]-5-methoxyphenyl}-N-(4-hydroxyphenyl)-N-phenyl-1H-indole-3-carboxamide] | 25.1 | 460
Cc1cc(C(=O)N(c2ccccc2)c2ccc(O)cc2)cn1-c1cccc(Cl)c1C(=O)N1Cc2ccccc2C[C@H]1CN(C)C [Example 18, 1-(3-Chloro-2-{[(3S)-3-[(dimethylamino)methyl]-3,4-dihydroisoquinolin-2(1H)-yl]carbonyl}phenyl)-N-(4-hydroxyphenyl)-5-methyl-N-phenyl-1H-pyrrole-3-carboxamide] | 44.6 | 1130
Cc1cc(C(=O)N(c2ccc(O)cc2)c2ccc3[nH]ccc3c2)cn1-c1cc(Br)ccc1C(=O)N1Cc2ccccc2C[C@H]1CN1CCN(C)CC1 [Example 46, 1-(5-Bromo-2-{[(3S)-3-[(4-methylpiperazin-1-yl)methyl]-3,4-dihydroisoquinolin-2(1H)-yl]carbonyl}phenyl)-N-(4-hydroxyphenyl)-N-(1H-indol-5-yl)-5-methyl-1H-pyrrole-3-carboxamide] | 8.4 | 93.4
CCn1ccc2cc(N(C(=O)c3cn(-c4cc5c(cc4C(=O)N4Cc6ccccc6C[C@H]4CN4CCN(C)CC4)OCO5)c4ccccc34)c3ccc(O)cc3)ccc21 [Example 99, N-(1-Ethyl-1H-indol-5-yl)-N-(4-hydroxyphenyl)-1-(6-{[(3S)-3-[(4-methylpiperazin-1-yl)methyl]-3,4-dihydroisoquinolin-2(1H)-yl]carbonyl}-1,3-benzodioxol-5-yl)-1H-indole-3-carboxamide] | 4.8 | 41.7
CN1CCN(C[C@@H]2Cc3ccccc3CN2C(=O)c2cc3c(cc2-n2cc(C(=O)N(c4ccccc4)c4ccc(O)cc4)c4ccccc42)OCCO3)CC1 [Example 170, N-(4-Hydroxyphenyl)-1-{7-[(3S)-3-[(4-methylpiperazin-1-yl)methyl]-1,2,3,4-tetrahydroisoquinoline-2-carbonyl]-2,3-dihydro-1,4-benzodioxin-6-yl}-N-phenyl-1H-indole-3-carboxamide] | 16.8 | 177
Cc1cc(C(=O)N(c2ccccc2)c2ccc(O)cc2)cn1-c1cc2c(cc1C(=O)N1Cc3ccccc3C[C@H]1CN1CCOCC1)OCO2 [Example 108, N-(4-Hydroxyphenyl)-5-methyl-1-(6-{[(3S)-3-(morpholin-4-ylmethyl)-3,4-dihydroisoquinolin-2(1H)-yl]carbonyl}-1,3-benzodioxol-5-yl)-N-phenyl-1H-pyrrole-3-carboxamide hydrochloride] | 35.5 | 544
CN1CCN(C[C@@H]2Cc3ccccc3CN2C(=O)c2cc(F)c(Cl)cc2-n2cc(C(=O)N(c3ccc(O)cc3)c3ccc4c(ccn4C)c3)c3ccccc32)CC1 [Example 78, 1-(5-Chloro-4-fluoro-2-{[(3S)-3-[(4-methylpiperazin-1-yl)methyl]-3,4-dihydroisoquinolin-2(1H)-yl]carbonyl}phenyl)-N-(4-hydroxyphenyl)-N-(1-methyl-1H-indol-5-yl)-1H-indole-3-carboxamide hydrochloride] | 3.7 | 81.4
NC[C@@H]1Cc2ccccc2CN1C(=O)c1ccccc1-n1nc(C(=O)N(c2ccccc2)c2ccccc2)c2ccc(C(=O)O)cc21 [Example 133, 1-{2-[(3S)-3-(Aminomethyl)-1,2,3,4-tetrahydroisoquinoline-2-carbonyl]-phenyl}-3-(diphenylcarbamoyl)-1H-indazole-6-carboxylic acid] | 841 | –
CN1CCN(C[C@@H]2Cc3ccccc3CN2C(=O)c2cc(O)c(O)cc2-n2cc(C(=O)N(c3ccccc3)c3ccc(O)cc3)c3ccccc32)CC1 [Example 183, 1-{4,5-Dihydroxy-2-[(3S)-3-[(4-methylpiperazin-1-yl)methyl]-1,2,3,4-tetrahydroisoquinoline-2-carbonyl]phenyl}-N-(4-hydroxyphenyl)-N-phenyl-1H-indole-3-carboxamide] | 8.3 | –

— patent publication US9765056B2, “Indole and pyrrole compounds, a process for their preparation and pharmaceutical compositions containing them” (LES LABORATOIRES SERVIER, priority 2013, dated 2017)
